# Laboratory results: ChEMBL document CHEMBL1132843, “A convenient procedure for the synthesis of nonsymmetrical bivalent selective serotonin reuptake inhibitors using polymer-supported reagents” (Bioorg Med Chem Lett, 2000)
# How the values were obtained:
# [1] = target: Monoamine transporters; serotonin & dopamine (Rattus norvegicus) (UniProt P31652+P23977); experiment: Ratio of selective inhibition of dopamine(DA) to serotonin(5-HT) was evaluated; type: protein assay
# [2] = target: Sodium-dependent dopamine transporter (Rattus norvegicus, UniProt P23977); experiment: Inhibition of [3H]DA uptake at Dopamine transporter into rat nerve endings (synaptosomes); type: subcellular, Brain
# [3] = target: Norepinephrine transporter (Rattus norvegicus, UniProt Q9WTR4); experiment: Inhibition of norepinephrine transporter by inhibition of [3H]NE uptake into rat nerve endings (synaptosomes); type: subcellular, Brain
# [4] = target: Sodium-dependent serotonin transporter (Rattus norvegicus, UniProt P31652); experiment: Inhibition of [3H]5-HT uptake into rat synaptosomes by Serotonin transporter; type: functional, subcellular, Brain
# Chain of Sodium-dependent serotonin transporter (P31652 whole entry): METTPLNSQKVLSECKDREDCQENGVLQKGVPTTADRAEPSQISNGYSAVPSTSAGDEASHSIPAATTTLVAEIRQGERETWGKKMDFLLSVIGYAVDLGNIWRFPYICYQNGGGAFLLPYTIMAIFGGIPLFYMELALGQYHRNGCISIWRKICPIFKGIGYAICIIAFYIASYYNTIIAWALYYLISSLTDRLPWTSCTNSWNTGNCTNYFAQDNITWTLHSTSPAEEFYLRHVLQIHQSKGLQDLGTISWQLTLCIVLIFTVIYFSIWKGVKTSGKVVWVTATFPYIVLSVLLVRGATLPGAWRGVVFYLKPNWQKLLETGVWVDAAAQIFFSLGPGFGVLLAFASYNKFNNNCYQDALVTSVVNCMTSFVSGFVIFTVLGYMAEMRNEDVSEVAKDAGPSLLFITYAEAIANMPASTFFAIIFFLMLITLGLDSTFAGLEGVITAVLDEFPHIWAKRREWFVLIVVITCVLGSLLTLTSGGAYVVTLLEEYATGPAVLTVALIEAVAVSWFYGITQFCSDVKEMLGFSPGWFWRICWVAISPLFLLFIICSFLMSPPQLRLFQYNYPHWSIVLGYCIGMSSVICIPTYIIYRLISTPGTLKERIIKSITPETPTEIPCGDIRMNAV
# Chain of Sodium-dependent dopamine transporter (P23977 whole entry): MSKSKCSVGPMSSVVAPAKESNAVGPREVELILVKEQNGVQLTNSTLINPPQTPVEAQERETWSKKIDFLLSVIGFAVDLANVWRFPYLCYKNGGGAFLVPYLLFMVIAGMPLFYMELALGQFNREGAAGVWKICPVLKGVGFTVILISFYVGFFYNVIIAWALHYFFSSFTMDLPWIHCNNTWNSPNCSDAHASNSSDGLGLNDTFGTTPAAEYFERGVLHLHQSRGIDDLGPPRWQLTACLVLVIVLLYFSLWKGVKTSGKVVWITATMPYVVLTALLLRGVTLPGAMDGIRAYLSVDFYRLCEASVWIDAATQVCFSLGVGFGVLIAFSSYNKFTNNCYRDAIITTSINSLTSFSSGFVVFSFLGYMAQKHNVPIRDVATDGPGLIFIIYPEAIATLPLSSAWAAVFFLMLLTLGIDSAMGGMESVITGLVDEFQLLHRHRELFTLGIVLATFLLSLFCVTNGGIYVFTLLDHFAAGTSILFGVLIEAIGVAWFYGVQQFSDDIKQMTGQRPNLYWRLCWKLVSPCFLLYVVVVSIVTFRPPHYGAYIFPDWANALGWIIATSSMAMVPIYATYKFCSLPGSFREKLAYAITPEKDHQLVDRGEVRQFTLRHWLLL
# Chain of Monoamine transporters; serotonin & dopamine (Rattus norvegicus) (P23977 whole entry, looked up): as the sequence (P23977 whole entry) above
# Chain of Monoamine transporters; serotonin & dopamine (Rattus norvegicus) (P31652 whole entry, looked up): as the sequence (P31652 whole entry) above
# Chain of Norepinephrine transporter (Q9WTR4 whole entry): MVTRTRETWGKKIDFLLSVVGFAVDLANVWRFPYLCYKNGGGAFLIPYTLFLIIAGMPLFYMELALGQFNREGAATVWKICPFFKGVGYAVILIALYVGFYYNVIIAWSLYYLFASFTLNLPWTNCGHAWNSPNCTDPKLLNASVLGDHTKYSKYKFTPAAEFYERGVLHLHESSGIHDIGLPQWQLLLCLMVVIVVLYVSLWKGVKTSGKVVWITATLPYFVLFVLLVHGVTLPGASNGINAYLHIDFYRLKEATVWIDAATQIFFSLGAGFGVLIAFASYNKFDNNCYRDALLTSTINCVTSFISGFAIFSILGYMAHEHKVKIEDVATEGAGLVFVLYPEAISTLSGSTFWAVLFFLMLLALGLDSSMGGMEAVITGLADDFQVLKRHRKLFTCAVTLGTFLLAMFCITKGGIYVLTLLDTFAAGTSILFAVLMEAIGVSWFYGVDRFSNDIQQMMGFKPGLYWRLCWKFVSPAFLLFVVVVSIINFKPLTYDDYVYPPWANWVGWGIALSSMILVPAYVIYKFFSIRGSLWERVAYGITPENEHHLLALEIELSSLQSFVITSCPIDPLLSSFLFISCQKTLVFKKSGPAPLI
Compound,Ratio [1],Ki [2],Ki [3],Ki [4]
CN1CC[C@@H](c2ccc(Cl)cc2)[C@H](C(=O)NCCCCCNC(=O)[C@@H]2CN(C)CC[C@H]2c2ccc(Cl)cc2)C1,1630,1.96 µM,0.399 µM,0.0012 µM
CN1CC[C@@H](c2ccc(Cl)cc2)[C@H](C(=O)NCc2ccc(CNC(=O)c3ccccc3)cc2)C1,,,,0.03 µM
CN1CC[C@@H](c2ccc(Cl)cc2)[C@H](C(=O)NCc2ccc(CNC(=O)c3cccc(Cl)c3)cc2)C1,> 121,> 4 µM,1.04 µM,0.033 µM
CN1CC[C@@H](c2ccc(Cl)cc2)[C@H](C(=O)NCc2ccc(CNC(=O)c3ccc(C(F)(F)F)cc3)cc2)C1,> 12,> 4 µM,0.651 µM,0.334 µM
CN1CC[C@@H](c2ccc(Cl)cc2)[C@H](C(=O)NCc2ccc(CNC(=O)c3ccc(Cl)cc3)cc2)C1,44,3.71 µM,1.54 µM,0.084 µM
CN1CC[C@@H](c2ccc(Cl)cc2)[C@H](C(=O)NCc2ccc(CNC(=O)/C=C/c3ccc(Cl)cc3)cc2)C1,> 29,> 2 µM,> 2 µM,0.069 µM
CN1CC[C@@H](c2ccc(Cl)cc2)[C@H](C(=O)NCc2ccc(CNC(=O)c3ccc(Cl)cc3Cl)cc2)C1,,,,0.139 µM
CN1CC[C@@H](c2ccc(Cl)cc2)[C@H](C(=O)NCc2ccc(CNC(=O)c3cccc(C(F)(F)F)c3)cc2)C1,> 143,> 5 µM,0.508 µM,0.035 µM
CN1CC[C@@H](c2ccc(Cl)cc2)[C@H](C(=O)NCc2ccc(CNC(=O)CCc3ccccc3)cc2)C1,> 30,> 2 µM,> 1 µM,0.067 µM
CN1CC[C@@H](c2ccc(Cl)cc2)[C@H](C(=O)NCc2ccc(CNC(=O)[C@@H]3CN(C)CC[C@H]3c3ccc(Cl)cc3)cc2)C1,> 7000,2.27 µM,0.074 µM,0.00032 µM
Cc1ccc(C(=O)NCc2ccc(CNC(=O)[C@@H]3CN(C)CC[C@H]3c3ccc(Cl)cc3)cc2)cc1,> 36,> 7 µM,> 1 µM,0.195 µM
COc1ccc(C(=O)NCc2ccc(CNC(=O)[C@@H]3CN(C)CC[C@H]3c3ccc(Cl)cc3)cc2)cc1,,,,0.092 µM
